Laboratory results as given in patent publication US20240208945A1, “6-CARBAMATE SUBSTITUTED HETEROARYL RING DERIVATIVES” (MEDSHINE DISCOVERY INC., priority 2021, published 2024).
Where a name gives a salt, the structure may show the parent alone.

Assays:
[1] = test system: Human pancreatic cancer cells (Miapaca2); experiment: In vivo drug efficacy in the Miapaca2 nude mouse xenograft tumor model; parameters: species or system Balb/c nude mice; settings: Miapaca-2 xenograft, AMG-510 5 mg/kg once a day, compound 14 hydrochloride 50 mg/kg twice a day, intragastric
Method: Human pancreatic cancer cells (Miapaca2) were cultured in vitro as a monolayer on an adherent surface, and the culture conditions were DMEM medium plus 10% fetal bovine serum, cultured in a 37° C., 5% CO2 incubator. The cells were treated with trypsin-EDTA for routine digestion and passaged two to three times a week. When the cell saturation was 80% to 90% and the number reached the requirements, the cells were collected, counted, and inoculated.
Balb/c nude mice, female, 6 to 7 weeks old, were purchased from Shanghai SIPPR-BK Lab Animal Co., Ltd.
0.2 mL (5×10^6) Miapaca-2 cells (plus Matrigel, volume ratio of 1:1) were subcutaneously inoculated on the right back of each mouse, and the administration in groups began when the average tumor volume reached 118 mm^3.
The tumor diameter was measured twice a week with a vernier caliper, and the tumor volume was measured in cubic millimeters, calculated by the following formula: V=0.5a×b^2, wherein a and b are the long and short diameters of the tumor, respectively. The tumor inhibitory efficacy of the test compound was evaluated by using TGI (%). TGI (%) reflects the rate of tumor growth inhibition. […]

[2] = biological target: binding of KRAS(G12C) to SOS1 (Homo sapiens (Human), UniProt Q07889); experiment: KRAS(G12C) and SOS1 binding assay (HTRF); settings: 25° C., 60 minutes
Description: The small molecular compound binds to the catalytic site of SOS1, thus inhibiting the binding of SOS1 to KRAS (G12C). When the binding of fluorescently labeled SOS1 protein to fluorescently labeled KRAS (G12C) protein is inhibited, the emitted fluorescence changes. The ability of small molecules to prevent the binding of SOS1 to KRAS (G12C) can be tested by detecting changes in fluorescence. A homogeneous time-resolved fluorescence (HTRF) binding assay was used to detect the ability of the compounds of the present disclosure to inhibit the binding of SOS1 to KRAS (G12C).
KRAS (G12C) protein was expressed and purified by Wuhan AtaGenix Biotechnology Co., Ltd., SOS1 exchange domin (564-1049) protein (Human recombinant) was purchased from Cytoskeleton, Mab Anti 6HIS-XL665 and Mab Anti GST-Eu cryptate were purchased from Cisbio. Multimode microplate reader Nivo5 was purchased from PerkinElmer.
1× buffer preparation (ready-to-use): Hepes: 5 mM; NaCl: 150 mM; EDTA: 10 mM; Igepal: 0.0025%; KF: 100 mM; DTT: 1 mM; BSA: […];
The test compounds were 5-fold diluted with DMSO using a multi-channel pipette to the 8th concentration, i.e., diluted from 1 mM to 0.064 μM.
The test compound was diluted by gradient with 1× buffer to a working solution with 2% DMSO. 5 μL/well of the working solution was added to corresponding wells, and the corresponding concentration gradient was 20 μM to […]. Duplicate experiment was set. The working solution was centrifuged at 1000 rpm for 1 minute.
A mixed working solution of KRAS(G12C) (200 nM) and Mab Anti GST-Eu cryptate (1 ng/μL) was prepared with 1× buffer, and the mixed working solution was incubated at 25° C. for 5 minutes, and 2.5 μL/well of the mixed working solution was added to the corresponding wells.
A mixed working solution of SOS1 (80 nM) and Mab Anti 6HIS-XL665 ([…]) was prepared with 1× buffer, and 2.5 μL/well of the mixed working solution was added to the corresponding wells. 2.5 μL of Mab Anti 6HIS-XL665 ([…]) diluent was added to blank wells. At this time, the final concentration gradient of the compound was diluted from 10 μM to 0.64 nM, KRAS(G12C) ([…]), MAb Anti GST-Eu cryptate (0.25 ng/μL), SOS1 (20 nM), Mab Anti 6HIS-XL665 (2 g/μL), the reaction system was placed at 25° C. for 60 minutes. After the reaction was completed, the multimode microplate reader was used to read HTRF.
Using the equation (Sample−Min)/(Max−Min)×100% to convert the raw data into inhibition rate, the IC50 value might be obtained by curve fitting with four parameters (obtained by “log (inhibitor) vs. response—Variable slope” mode in GraphPad Prism).

p-ERK in DLD-1 cells = experiment: p-ERK inhibitory activity test in DLD-1 cells (HTRF Phospho-ERK1/2 kit); type: cell-based; settings: Homo sapiens, 1 hour incubation
Method: DLD-1 cells were purchased from Nanjing Cobioer; 1640 medium was purchased from Biological Industries; fetal bovine serum was purchased from Biosera; Advanced Phospho-ERK1/2 (THR202/TYR204) KIT was purchased from Cisbio.
DLD-1 cells were seeded in a transparent 96-well cell culture plate, with 80 μL of cell suspension per well and 8000 DLD-1 cells per well. The cell plate was incubated in a carbon dioxide incubator at 37° C. overnight; • the test compound was diluted to 2 mM with 100% DMSO as the first concentration, and then 5-fold diluted to the 8th concentration with a pipette, that is, diluted from 2 mM to 0.026 μM. 2 μL of compound was added to 78 μL of cell starvation medium. After mixing well, 20 μL of compound solution was taken and added to the corresponding cell plate wells, and the cell plate was put back to the carbon dioxide incubator to continue to incubate for 1 hour; at this time, the concentration of the compound was from 10 μM to 0.128 nM, and the concentration of DMSO was 0.5%; • after the incubation was completed, the cell supernatant was discarded, and 50 μL of cell lysate was added to each well, and incubated at room temperature for 30 minutes with shaking; • Phospho-ERK1/2 Eu Cryptate antibody and Phospho-ERK1/2 d2 antibody were 20-fold diluted using Detection buffer; • 16 μL of cell lysate supernatant per well was put into a new 384 white microplate, then 2 μL of Phospho-ERK1/2 Eu Cryptate antibody diluent and 2 μL of Phospho-ERK1/2 d2 antibody diluent were added thereto and incubated at room temperature for 4 hours; • after the incubation was completed, a multimode microplate reader was used to read HTRF excitation: 320 nm, emission: 615 nm, 665 nm.
Using the equation (Sample−Min)/(Max−Min)*100% to convert the raw data into inhibition rate, the IC50 value might be obtained by curve fitting with four parameters (obtained by “log (inhibitor) vs. response—Variable slope” mode in GraphPad Prism). • Max well: Positive control well reading is 1× lysate • Min well: Negative control well reading is 0.5% DMSO cell well cell lysate

[3] = Pharmacokinetic evaluation in CD-1 mice (IV and oral); type: in vivo; settings: mouse, plasma
Method: CD-1 mice (male, 7 to 9 weeks old, Shanghai SLAC)
The pharmacokinetic characteristics of the compound in rodents after intravenous injection and oral administration were tested according to the standard protocol. In the experiment, the candidate compound was formulated into clear solutions, and a single intravenous injection and oral administration were given to mice. The vehicle for intravenous injection and oral administration was a mixed vehicle composed of 10% dimethyl sulfoxide and 90% hydroxypropyl β-cyclodextrin with a content of 10%. In this project, four female CD-1 mice were used, and two mice were administered intravenously at a dose of 1 mg/kg. Plasma samples were collected at 0.033, 0.083, 0.25, 0.5, 1, 2, 4, 8, and 12 hours after administration. The other two mice were administered orally by gavage at a dose of 2 mg/kg. Plasma samples were collected at 0.083, 0.25, 0.5, 1, 2, 4, 8, and 12 hours after administration, […] at 4° C. for 10 minutes at 3,200×g, and the supernatants were separated from the plasma samples. The protein was precipitated by adding 20 times the volume of methanol solution containing internal standard, […] at 12000×g for 15 minutes, centrifuged at 4° C. 50 μL of the supernatant was transferred to a 96-well plate and centrifuged for a second time to take the supernatant for injection. The plasma concentration was quantitatively analyzed by LC-MS/MS analysis method, and the pharmacokinetic parameters were calculated, such as peak concentration (Cmax), clearance rate (CL), half-life (T1/2), volume of distribution at steady state (Vdss), area under drug-time curve (AUC0-last), bioavailability (F).

Chain of binding of KRAS(G12C) to SOS1 (Q07889 564-1049, stated change not applied): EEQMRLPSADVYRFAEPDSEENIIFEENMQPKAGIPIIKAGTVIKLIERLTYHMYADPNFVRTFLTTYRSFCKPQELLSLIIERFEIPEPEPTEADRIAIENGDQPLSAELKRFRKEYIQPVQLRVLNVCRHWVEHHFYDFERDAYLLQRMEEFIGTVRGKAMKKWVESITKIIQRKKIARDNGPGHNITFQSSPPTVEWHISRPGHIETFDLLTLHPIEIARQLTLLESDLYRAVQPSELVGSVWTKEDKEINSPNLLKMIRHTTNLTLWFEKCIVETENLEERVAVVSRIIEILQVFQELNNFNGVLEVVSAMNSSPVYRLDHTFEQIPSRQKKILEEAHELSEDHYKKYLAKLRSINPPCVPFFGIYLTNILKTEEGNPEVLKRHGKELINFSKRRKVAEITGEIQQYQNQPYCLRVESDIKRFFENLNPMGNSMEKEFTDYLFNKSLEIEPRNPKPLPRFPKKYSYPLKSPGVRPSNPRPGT

Row | SMILES | Mean tumor volume ± SEM (day 22) [1] | TGI ([1]; day 22) | IC50 [2] | IC50 (p-ERK in DLD-1 cells) | Cmax ([3]; IV 1 mg/kg and oral 2 mg/kg study, read-out: Peak concentration Cmax) | bioavailability ([3]; IV 1 mg/kg, PO 2 mg/kg, read-out: Bioavailability F) | clearance ([3]; IV 1 mg/kg, read-out: Clearance rate CL) | half-life ([3]; IV 1 mg/kg, read-out: Half life T1/2 (IV) (converted)) | Vd ([3]; IV 1 mg/kg, read-out: Volume of distribution at steady state Vdss) | AUC(0-t) ([3]; PO 2 mg/kg, read-out: Area under drug-time curve AUC0-last PO)
1 | C=CC(=O)N1CCN(c2nc(=O)n(-c3c(C)ccnc3C(C)C)c3nc(-c4c(O)cccc4F)c(F)cc23)[C@@H](C)C1 (atropisomer, axis not shown) [AMG-510] | 819 ± 407 mm^3 | 59.4% |  |  |  |  |  |  |  | 
2 | COc1cc2nc(C)nc(N[C@H](C)c3cccc(C(F)(F)C(C)(C)O)c3F)c2cc1OC(=O)N1CCN(C)CC1C (stereo partly shown) [Hydrochloride of compound 14] |  |  | 40.4 nM | 78.9 nM | 92.3 nM | 33.9% | 29.2 mL/min/kg | 2.96 h | 4.95 L/kg | 0.606 µM·h
